Assay results taken from publication PMC5218480 (PLoS ONE, 2017).

System: MV-4-11 cells
Test: Gene expression microarray analysis (Affymetrix PrimeView) and GSEA
Type: cell-based, human
Parameters: RFU PODN (11730768_x_at) / Fold change /veh PODN (11730768_x_at) / RFU LINC00158 (11744669_a_at) / Fold change /veh LINC00158 (11744669_a_at) / RFU DUSP10 (11751237_a_at) / Fold change /veh DUSP10 (11751237_a_at) / RFU ID3 (11757404_x_at) / Fold change /veh ID3 (11757404_x_at) / RFU PLEKHG5 (11737974_s_at) / Fold change /veh PLEKHG5 (11737974_s_at) / RFU LRRC4B (11730491_at) / Fold change /veh LRRC4B (11730491_at) / RFU GIMAP4 (11747438_a_at) / Fold change /veh GIMAP4 (11747438_a_at) / RFU KRT8 (11758183_x_at) / Fold change /veh KRT8 (11758183_x_at) / RFU CNN1 (11734310_a_at) / Fold change /veh CNN1 (11734310_a_at) / RFU VPS37D (11726825_at) / Fold change /veh VPS37D (11726825_at) / RFU C10orf10 (11716522_x_at) / Fold change /veh C10orf10 (11716522_x_at) / RFU KIR2DL2 /// KIR2DL4 /// KIR2DL5A /// KIR2DL5B /// KIR2DS1 /// KIR2DS2 /// KIR2DS3 /// KIR2DS4 /// KIR3DL3 /// KIR3DL3 /// KIR3DS1 (11738374_at) / Fold change /veh KIR2DL2 /// KIR2DL4 /// KIR2DL5A /// KIR2DL5B /// KIR2DS1 /// KIR2DS2 /// KIR2DS3 /// KIR2DS4 /// KIR3DL3 /// KIR3DL3 /// KIR3DS1 (11738374_at) / RFU C1QL1 (11718748_at) / Fold change /veh C1QL1 (11718748_at) / RFU TMPRSS4 (11747572_a_at) / Fold change /veh TMPRSS4 (11747572_a_at) / RFU HAMP (11756126_x_at) / Fold change /veh HAMP (11756126_x_at) / RFU RNFT2 (11725882_a_at) / Fold change /veh RNFT2 (11725882_a_at) / RFU NR4A2 (11747474_a_at) / Fold change /veh NR4A2 (11747474_a_at) / RFU ABCC12 (11746883_a_at) / Fold change /veh ABCC12 (11746883_a_at) / RFU TMEM136 (11760407_x_at) / Fold change /veh TMEM136 (11760407_x_at) / RFU CLDN22 /// WWC2 (11732394_at) / Fold change /veh CLDN22 /// WWC2 (11732394_at) / RFU HLA-DPB1 (11760878_x_at) / Fold change /veh HLA-DPB1 (11760878_x_at) / RFU SPINT1 (11716480_a_at) / Fold change /veh SPINT1 (11716480_a_at) / RFU GAP43 (11754022_s_at) / Fold change /veh GAP43 (11754022_s_at) / RFU A4GNT (11735810_at) / Fold change /veh A4GNT (11735810_at) / RFU PRB3 (11715151_x_at) / Fold change /veh PRB3 (11715151_x_at) / RFU TUBB4B (11761932_at) / Fold change /veh TUBB4B (11761932_at) / RFU CAPN14 (11732068_a_at) / Fold change /veh CAPN14 (11732068_a_at) / RFU TMCC2 (11721928_a_at) / Fold change /veh TMCC2 (11721928_a_at) / RFU IRGQ (11745062_a_at) / Fold change /veh IRGQ (11745062_a_at) / RFU FAM174B (11720279_a_at) / Fold change /veh FAM174B (11720279_a_at) / RFU TMPRSS4 (11748680_a_at) / Fold change /veh TMPRSS4 (11748680_a_at) / RFU FAM212B (11763350_a_at) / Fold change /veh FAM212B (11763350_a_at) / RFU PLEKHG5 (11743358_a_at) / Fold change /veh PLEKHG5 (11743358_a_at) / RFU ZSCAN30 (11745921_a_at) / Fold change /veh ZSCAN30 (11745921_a_at) / RFU CMKLR1 (11741424_a_at) / Fold change /veh CMKLR1 (11741424_a_at) / RFU LOC101060620 /// MAPK8IP1 (11723275_at) / Fold change /veh LOC101060620 /// MAPK8IP1 (11723275_at) / RFU SPTSSB (11747773_x_at) / Fold change /veh SPTSSB (11747773_x_at) / RFU PRSS12 (11739890_at) / Fold change /veh PRSS12 (11739890_at) / RFU BIN1 (11741810_x_at) / Fold change /veh BIN1 (11741810_x_at) / RFU WNT11 (11732464_a_at) / Fold change /veh WNT11 (11732464_a_at) / RFU C10orf10 (11716521_a_at) / Fold change /veh C10orf10 (11716521_a_at) / RFU C5orf56 (11738089_at) / Fold change /veh C5orf56 (11738089_at) / RFU CYB561 (11721691_x_at) / Fold change /veh CYB561 (11721691_x_at) / RFU ANKRD19P (11752326_a_at) / Fold change /veh ANKRD19P (11752326_a_at) / RFU OR2T12 /// OR2T33 /// OR2T8 (11738714_s_at) / Fold change /veh OR2T12 /// OR2T33 /// OR2T8 (11738714_s_at) / RFU VCAN (11748164_a_at) / Fold change /veh VCAN (11748164_a_at) / RFU JSRP1 (11732532_at) / Fold change /veh JSRP1 (11732532_at) / RFU KRTAP10-11 (11738290_x_at) / Fold change /veh KRTAP10-11 (11738290_x_at) / RFU MYO3A (11730013_a_at) / Fold change /veh MYO3A (11730013_a_at) / RFU EBF3 (11725865_a_at) / Fold change /veh EBF3 (11725865_a_at) / RFU CAMK2N1 (11719241_x_at) / Fold change /veh CAMK2N1 (11719241_x_at) / RFU C5orf56 (11738088_a_at) / Fold change /veh C5orf56 (11738088_a_at) / RFU OLFML3 (11715873_a_at) / Fold change /veh OLFML3 (11715873_a_at) / RFU LOC100653217 /// NTM (11731650_a_at) / Fold change /veh LOC100653217 /// NTM (11731650_a_at) / RFU MAPK11 (11762145_a_at) / Fold change /veh MAPK11 (11762145_a_at) / RFU FIZ1 (11724087_x_at) / Fold change /veh FIZ1 (11724087_x_at) / RFU OASL (11726364_x_at) / Fold change /veh OASL (11726364_x_at) / RFU SOX15 (11748057_x_at) / Fold change /veh SOX15 (11748057_x_at) / RFU CD79A (11719716_a_at) / Fold change /veh CD79A (11719716_a_at) / RFU HIST1H1D (11736915_at) / Fold change /veh HIST1H1D (11736915_at) / RFU CASKIN2 (11723855_a_at) / Fold change /veh CASKIN2 (11723855_a_at) / RFU LOC730098 (11760151_x_at) / Fold change /veh LOC730098 (11760151_x_at) / RFU OR4N2 (11742367_at) / Fold change /veh OR4N2 (11742367_at) / RFU PRRT2 (11749266_a_at) / Fold change /veh PRRT2 (11749266_a_at) / RFU SNX32 (11753110_a_at) / Fold change /veh SNX32 (11753110_a_at) / RFU CDHR5 (11726645_a_at) / Fold change /veh CDHR5 (11726645_a_at) / RFU RCAN1 (11760418_a_at) / Fold change /veh RCAN1 (11760418_a_at) / RFU FAM167A (11723789_a_at) / Fold change /veh FAM167A (11723789_a_at) / RFU FAM26E (11764081_at) / Fold change /veh FAM26E (11764081_at) / RFU ISYNA1 (11749810_s_at) / Fold change /veh ISYNA1 (11749810_s_at) / RFU ACY1 (11761880_at) / Fold change /veh ACY1 (11761880_at) / RFU 11764098_at / Fold change /veh 11764098_at / RFU SAMD14 (11745864_x_at) / Fold change /veh SAMD14 (11745864_x_at) / RFU NPB (11741838_a_at) / Fold change /veh NPB (11741838_a_at) / RFU TMPRSS6 (11731388_a_at) / Fold change /veh TMPRSS6 (11731388_a_at) / RFU KRTAP10-2 (11738614_at) / Fold change /veh KRTAP10-2 (11738614_at) / RFU ARHGAP8 /// PRR5-ARHGAP8 (11727945_x_at) / Fold change /veh ARHGAP8 /// PRR5-ARHGAP8 (11727945_x_at) / RFU KRTAP5-7 /// NADSYN1 (11734609_at) / Fold change /veh KRTAP5-7 /// NADSYN1 (11734609_at) / RFU RASL12 (11751679_a_at) / Fold change /veh RASL12 (11751679_a_at) / RFU CDKN2B (11736163_a_at) / Fold change /veh CDKN2B (11736163_a_at) / RFU PRF1 (11729649_at) / Fold change /veh PRF1 (11729649_at) / RFU, ZNF638 /// ZNF638-IT1 / Fold change vs veh, ZNF638 /// ZNF638-IT1 / RFU, PANK3 / Fold change vs veh, PANK3 / RFU, SH3YL1 / Fold change vs veh, SH3YL1 / RFU, ZEB2 / Fold change vs veh, ZEB2 / RFU, NRIP1 / Fold change vs veh, NRIP1 / RFU, PTTG1IP / Fold change vs veh, PTTG1IP / RFU, CAPN2 / Fold change vs veh, CAPN2 / RFU, MED14 / Fold change vs veh, MED14 / RFU, SNORA58 / Fold change vs veh, SNORA58 / RFU, C1orf63 / Fold change vs veh, C1orf63 / RFU, LRRFIP1 / Fold change vs veh, LRRFIP1 / RFU, NDUFAF7 / Fold change vs veh, NDUFAF7 / RFU, SLC12A2 / Fold change vs veh, SLC12A2 / RFU, IBTK / Fold change vs veh, IBTK / RFU, ESF1 / Fold change vs veh, ESF1 / Fold change vs veh, TMEM50B / RFU, TAOK1 / Fold change vs veh, TAOK1 / RFU, ACBD3 / Fold change vs veh, ACBD3 / RFU, TMA16 / Fold change vs veh, TMA16 / RFU, RWDD3 / Fold change vs veh, RWDD3 / RFU, BCAT1 / Fold change vs veh, BCAT1 / RFU, EDEM3 / Fold change vs veh, EDEM3 / RFU, TMEM33 / Fold change vs veh, TMEM33 / RFU, WDR75 / Fold change vs veh, WDR75 / RFU, AHCTF1 / Fold change vs veh, AHCTF1 / RFU, TFRC / Fold change vs veh, TFRC / RFU, ZDHHC17 / Fold change vs veh, ZDHHC17 / RFU, NOM1 / Fold change vs veh, NOM1 / RFU, ARL8B / Fold change vs veh, ARL8B / RFU, ZBTB11 / Fold change vs veh, ZBTB11 / RFU, TAMM41 / Fold change vs veh, TAMM41 / RFU, KIAA1704 /// LOC100996395 / Fold change vs veh, KIAA1704 /// LOC100996395 / RFU, ING1 / Fold change vs veh, ING1 / RFU, TRMT61B / Fold change vs veh, TRMT61B / RFU, FUBP3 / Fold change vs veh, FUBP3 / RFU, TP53 / Fold change vs veh, TP53 / RFU, TNKS2 / Fold change vs veh, TNKS2 / RFU, ZFP14 / Fold change vs veh, ZFP14 / RFU, ACTR2 / Fold change vs veh, ACTR2 / RFU, PPP3R1 / Fold change vs veh, PPP3R1 / RFU, PIK3R1 / Fold change vs veh, PIK3R1 / RFU, HNRNPA1 / Fold change vs veh, HNRNPA1 / RFU, RNF170 / Fold change vs veh, RNF170 / RFU, ZNF28 / Fold change vs veh, ZNF28 / RFU, RNGTT / Fold change vs veh, RNGTT / RFU, OGT / Fold change vs veh, OGT / RFU, BRD1 / Fold change vs veh, BRD1 / RFU, MARS / Fold change vs veh, MARS / RFU, ZNF655 / Fold change vs veh, ZNF655 / RFU, FAHD1 / Fold change vs veh, FAHD1 / RFU, BDP1 / Fold change vs veh, BDP1 / RFU, LRRCC1 / Fold change vs veh, LRRCC1 / RFU, ARID1A / Fold change vs veh, ARID1A / RFU, ZNF146 / Fold change vs veh, ZNF146 / RFU, ZNF330 / Fold change vs veh, ZNF330 / RFU, GPN3 / Fold change vs veh, GPN3 / RFU, C9orf123 / Fold change vs veh, C9orf123 / RFU, N4BP2L2 / Fold change vs veh, N4BP2L2 / RFU, ARFIP1 / Fold change vs veh, ARFIP1 / RFU, FAM179B / Fold change vs veh, FAM179B / RFU, BCL10 / Fold change vs veh, BCL10 / RFU, UHRF1BP1L / Fold change vs veh, UHRF1BP1L / RFU, BET1 / Fold change vs veh, BET1 / RFU, CNOT2 / Fold change vs veh, CNOT2 / RFU, ZNF268 / Fold change vs veh, ZNF268 / Fold change vs veh, ZNF507 / RFU, DGCR2 / Fold change vs veh, DGCR2 / RFU, WDSUB1 / Fold change vs veh, WDSUB1 / Fold change vs veh, HSP90B1 /// MIR3652 / RFU, ADSS / Fold change vs veh, ADSS / RFU, GK / Fold change vs veh, GK / RFU, ZNF148 / Fold change vs veh, ZNF148 / RFU, TAF9 / Fold change vs veh, TAF9 / RFU, SLC1A5 / Fold change vs veh, SLC1A5 / RFU, SLMO2 / Fold change vs veh, SLMO2 / RFU, ABCC4 / Fold change vs veh, ABCC4 / RFU, LOC101060439 /// RAP1B / Fold change vs veh, LOC101060439 /// RAP1B / RFU, RFX7 / Fold change vs veh, RFX7 / RFU, GTPBP10 / Fold change vs veh, GTPBP10 / RFU, CNEP1R1 / Fold change vs veh, CNEP1R1 / RFU, BIVM-ERCC5 /// ERCC5 / Fold change vs veh, BIVM-ERCC5 /// ERCC5 / RFU, ILF3 / Fold change vs veh, ILF3 / RFU 11762660_at / Fold change /veh 11762660_at / RFU VCAN (11757783_s_at) / Fold change /veh VCAN (11757783_s_at) / RFU DDX43 (11728927_at) / Fold change /veh DDX43 (11728927_at) / RFU KRT8 (11758188_x_at) / Fold change /veh KRT8 (11758188_x_at) / RFU NKD1 (11759106_at) / Fold change /veh NKD1 (11759106_at) / RFU SRD5A1 (11742802_a_at) / Fold change /veh SRD5A1 (11742802_a_at) / RFU TPSAB1 /// TPSB2 (11721975_s_at) / Fold change /veh TPSAB1 /// TPSB2 (11721975_s_at) / RFU GSTM3 (11746129_a_at) / Fold change /veh GSTM3 (11746129_a_at) / RFU IL23R (11737362_x_at) / Fold change /veh IL23R (11737362_x_at) / RFU TMEM51 (11727254_a_at) / Fold change /veh TMEM51 (11727254_a_at) / RFU PIWIL2 (11732686_x_at) / Fold change /veh PIWIL2 (11732686_x_at) / RFU ORM1 (11744905_x_at) / Fold change /veh ORM1 (11744905_x_at) / RFU CCDC152 (11743942_at) / Fold change /veh CCDC152 (11743942_at) / RFU ECM1 (11717891_a_at) / Fold change /veh ECM1 (11717891_a_at) / RFU IL23R (11748794_a_at) / Fold change /veh IL23R (11748794_a_at) / RFU TNFAIP8L3 (11732012_x_at) / Fold change /veh TNFAIP8L3 (11732012_x_at) / RFU MBOAT4 (11741988_at) / Fold change /veh MBOAT4 (11741988_at) / RFU 11764193_at / Fold change /veh 11764193_at / RFU TMEM53 (11763286_at) / Fold change /veh TMEM53 (11763286_at) / RFU MAGEB2 (11727129_at) / Fold change /veh MAGEB2 (11727129_at) / RFU TMEM200A (11744735_a_at) / Fold change /veh TMEM200A (11744735_a_at) / RFU CCDC152 (11751479_a_at) / Fold change /veh CCDC152 (11751479_a_at) / RFU FAM211A (11726209_a_at) / Fold change /veh FAM211A (11726209_a_at) / RFU RGS16 (11746705_a_at) / Fold change /veh RGS16 (11746705_a_at) / RFU VCAN (11755009_s_at) / Fold change /veh VCAN (11755009_s_at) / RFU RHOB (11743442_s_at) / Fold change /veh RHOB (11743442_s_at) / RFU RGS16 (11720943_a_at) / Fold change /veh RGS16 (11720943_a_at) / RFU RGS16 (11720944_at) / Fold change /veh RGS16 (11720944_at) / RFU, VPS4B / Fold change vs veh, VPS4B / RFU, CREB1 / Fold change vs veh, CREB1 / RFU, DNAJC13 / Fold change vs veh, DNAJC13 / RFU, GNAQ / Fold change vs veh, GNAQ / RFU, CDK5R1 / Fold change vs veh, CDK5R1 / RFU, ZRANB3 / Fold change vs veh, ZRANB3 / RFU, CUL4A / Fold change vs veh, CUL4A / RFU, CCNY / Fold change vs veh, CCNY / RFU, UFL1 / Fold change vs veh, UFL1 / RFU, COG3 / Fold change vs veh, COG3 / RFU, DIAPH2 / Fold change vs veh, DIAPH2 / RFU, SKA2 / Fold change vs veh, SKA2 / RFU, AFF3 / Fold change vs veh, AFF3 / RFU, LMF1 / Fold change vs veh, LMF1 / RFU, IPO11 / Fold change vs veh, IPO11 / RFU, DFFB / Fold change vs veh, DFFB / RFU, FOXP1 / Fold change vs veh, FOXP1 / RFU, CARD8 / Fold change vs veh, CARD8 / RFU, STRN3 / Fold change vs veh, STRN3 / RFU, ADK / Fold change vs veh, ADK / RFU, RASSF2 / Fold change vs veh, RASSF2 / RFU, WIPF1 / Fold change vs veh, WIPF1 / RFU, LARP1B / Fold change vs veh, LARP1B / RFU, RASA1 / Fold change vs veh, RASA1 / RFU, RB1 / Fold change vs veh, RB1 / RFU, PPFIA1 / Fold change vs veh, PPFIA1 / RFU, MAT2A / Fold change vs veh, MAT2A / RFU, CCT5 / Fold change vs veh, CCT5 / RFU, WDR92 / Fold change vs veh, WDR92 / RFU, CUX1 / Fold change vs veh, CUX1 / RFU, TTC7A / Fold change vs veh, TTC7A / RFU, TMEM135 / Fold change vs veh, TMEM135 / RFU, DEPTOR / Fold change vs veh, DEPTOR / RFU, CPM / Fold change vs veh, CPM / RFU, DNAJB6 / Fold change vs veh, DNAJB6 / RFU, CACNA2D3 / Fold change vs veh, CACNA2D3 / RFU, DTX4 / Fold change vs veh, DTX4 / RFU, TFCP2 / Fold change vs veh, TFCP2 / RFU, GMCL1 /// GMCL1P1 / Fold change vs veh, GMCL1 /// GMCL1P1 / RFU, AEBP2 / Fold change vs veh, AEBP2 / RFU, SNHG1 /// SNORD22 /// SNORD25 /// SNORD26 /// SNORD27 /// SNORD28 /// SNORD29 /// SNORD31 / Fold change vs veh, SNHG1 /// SNORD22 /// SNORD25 /// SNORD26 /// SNORD27 /// SNORD28 /// SNORD29 /// SNORD31 / Fold change (Aza/veh), C12orf56 (ProbeSet 11735607_a_at) / Fold change (ACY-1035/veh), C12orf56 (ProbeSet 11735607_a_at) / Fold change (Aza/veh), FGFR1OP (ProbeSet 11751329_s_at) / Fold change (ACY-1035/veh), FGFR1OP (ProbeSet 11751329_s_at) / Fold change (Aza/veh), VPS36 (ProbeSet 11739960_a_at) / Fold change (ACY-1035/veh), VPS36 (ProbeSet 11739960_a_at) / RFU SYPL1 (11715823_x_at) / Fold change /veh SYPL1 (11715823_x_at) / RFU IGFBP7 (11715501_s_at) / Fold change /veh IGFBP7 (11715501_s_at) / RFU REEP3 (11722064_at) / Fold change /veh REEP3 (11722064_at) / RFU IGLL1 (11728026_x_at) / Fold change /veh IGLL1 (11728026_x_at): dose or concentration left out as unconfirmed
Conditions: ProbeSet 11741199_a_at; LIST B

Compound: Nc1ccc(-c2cccs2)cc1NC(=O)c1ccc2c(c1)cc(C1CC1)n2CCN1CCOCC1 [ACY-1035]
- Fold change vs veh, LRRCC1: 0.84
